Test results: ChEMBL document CHEMBL3217709, “SAR mining and its application to the design of TRPA1 antagonists” (Medchemcomm, 2012)

Legend:
[1] = target: 5-hydroxytryptamine receptor 4 (Homo sapiens, UniProt Q13639); assay: Antagonist activity at […] receptor (unknown origin)
Adenosine receptor A2b = target: T1, Adenosine receptor A2b (Homo sapiens, UniProt P29275); assay: Antagonist activity at adenosine A2B receptor (unknown origin)
T1 sequence (P29275 whole entry): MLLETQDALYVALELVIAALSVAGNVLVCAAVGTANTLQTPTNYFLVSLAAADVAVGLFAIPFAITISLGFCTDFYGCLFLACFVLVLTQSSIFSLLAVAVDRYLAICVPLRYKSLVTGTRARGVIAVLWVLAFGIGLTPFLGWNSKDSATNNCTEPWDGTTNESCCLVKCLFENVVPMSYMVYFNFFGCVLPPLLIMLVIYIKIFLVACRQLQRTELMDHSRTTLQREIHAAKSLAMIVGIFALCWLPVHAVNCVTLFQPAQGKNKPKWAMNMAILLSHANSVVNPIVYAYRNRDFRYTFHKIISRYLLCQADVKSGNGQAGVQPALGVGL

Coagulation factor X = Coagulation factor X (Homo sapiens, UniProt P00742); assay: Inhibition of factor-10a (unknown origin)
[2] = target: Transient receptor potential cation channel subfamily A member 1 (Homo sapiens, UniProt O75762); assay: Antagonist activity at TRPA1 (unknown origin)
Sequence of Transient receptor potential cation channel subfamily A member 1 (O75762 whole entry): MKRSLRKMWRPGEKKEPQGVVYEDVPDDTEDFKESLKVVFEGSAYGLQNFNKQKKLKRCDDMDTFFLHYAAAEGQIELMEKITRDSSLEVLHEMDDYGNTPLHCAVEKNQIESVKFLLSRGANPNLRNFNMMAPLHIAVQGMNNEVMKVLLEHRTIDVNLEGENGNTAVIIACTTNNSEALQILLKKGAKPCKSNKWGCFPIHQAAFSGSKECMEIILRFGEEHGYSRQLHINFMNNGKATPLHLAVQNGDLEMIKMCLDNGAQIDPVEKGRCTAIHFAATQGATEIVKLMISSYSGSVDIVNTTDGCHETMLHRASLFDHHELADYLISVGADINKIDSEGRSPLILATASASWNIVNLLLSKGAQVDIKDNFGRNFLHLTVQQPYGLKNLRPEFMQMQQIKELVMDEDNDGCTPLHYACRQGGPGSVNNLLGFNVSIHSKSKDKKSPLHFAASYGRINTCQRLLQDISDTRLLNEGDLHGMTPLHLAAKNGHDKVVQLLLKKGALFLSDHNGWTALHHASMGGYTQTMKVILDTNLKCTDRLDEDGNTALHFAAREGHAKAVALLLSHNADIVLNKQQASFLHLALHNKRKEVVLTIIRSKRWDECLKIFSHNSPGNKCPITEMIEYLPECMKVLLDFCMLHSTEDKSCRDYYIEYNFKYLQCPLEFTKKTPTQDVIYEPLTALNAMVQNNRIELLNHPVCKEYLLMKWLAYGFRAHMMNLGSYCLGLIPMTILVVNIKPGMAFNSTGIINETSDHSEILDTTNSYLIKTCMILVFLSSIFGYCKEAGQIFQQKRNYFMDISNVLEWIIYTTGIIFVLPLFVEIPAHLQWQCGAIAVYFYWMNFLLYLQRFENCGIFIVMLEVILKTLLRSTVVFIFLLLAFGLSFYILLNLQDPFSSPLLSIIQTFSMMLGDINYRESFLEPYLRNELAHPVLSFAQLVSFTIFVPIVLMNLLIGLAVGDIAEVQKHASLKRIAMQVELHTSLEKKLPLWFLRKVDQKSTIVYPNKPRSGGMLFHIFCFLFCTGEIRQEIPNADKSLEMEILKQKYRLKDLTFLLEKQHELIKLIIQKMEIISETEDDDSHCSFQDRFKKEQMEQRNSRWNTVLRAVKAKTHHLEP

Sequence of 5-hydroxytryptamine receptor 4 (Q13639 whole entry): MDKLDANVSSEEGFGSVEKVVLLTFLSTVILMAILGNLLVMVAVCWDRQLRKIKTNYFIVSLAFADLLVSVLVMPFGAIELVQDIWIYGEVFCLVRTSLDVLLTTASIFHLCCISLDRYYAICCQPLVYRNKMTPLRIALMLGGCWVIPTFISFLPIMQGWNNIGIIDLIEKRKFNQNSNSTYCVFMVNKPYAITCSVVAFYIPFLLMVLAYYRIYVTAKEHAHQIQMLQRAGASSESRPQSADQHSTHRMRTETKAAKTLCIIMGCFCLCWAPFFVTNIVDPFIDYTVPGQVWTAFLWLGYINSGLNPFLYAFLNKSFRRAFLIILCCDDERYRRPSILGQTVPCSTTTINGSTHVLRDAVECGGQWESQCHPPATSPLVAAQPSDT
Sequence of Coagulation factor X (P00742 41-179 limits assumed): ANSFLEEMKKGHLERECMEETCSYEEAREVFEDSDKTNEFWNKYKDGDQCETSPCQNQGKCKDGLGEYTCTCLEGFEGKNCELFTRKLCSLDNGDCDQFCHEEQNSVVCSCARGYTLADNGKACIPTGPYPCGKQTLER
Sequence of Coagulation factor X (P00742 235-488 limits assumed): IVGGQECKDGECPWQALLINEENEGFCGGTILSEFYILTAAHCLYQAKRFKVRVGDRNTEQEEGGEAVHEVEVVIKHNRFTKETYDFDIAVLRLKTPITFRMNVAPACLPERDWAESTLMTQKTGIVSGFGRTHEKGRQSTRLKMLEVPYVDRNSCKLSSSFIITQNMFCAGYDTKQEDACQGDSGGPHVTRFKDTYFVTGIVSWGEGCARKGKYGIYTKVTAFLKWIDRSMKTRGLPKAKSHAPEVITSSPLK

SMILES | IC50 [1] | IC50 [2] | other results
COc1cc(N)c(Cl)cc1C(=O)OCCN1CCN(c2ccccc2OC)CC1 | 64 nM |  | IC50 (Adenosine receptor A2b): 127 nM
COc1cc(N)c(Cl)cc1C(=O)OCCN1CCN(c2ccccc2Cl)CC1 | 296 nM |  | IC50 (Adenosine receptor A2b): 5830 nM
COc1cc(N)c(Cl)cc1C(=O)OCCN1CCN(c2cccc(Cl)c2)CC1 | 162 nM |  | IC50 (Adenosine receptor A2b): 2080 nM
Cc1cc(C(=O)Nc2ccc(-c3ccccc3C(F)(F)F)cc2)n(-c2cccc(C(=N)N)c2)n1 |  |  | IC50 (Coagulation factor X): 0.04 nM
COc1cc(N)c(Cl)cc1C(=O)OCCN1CCN(c2ccccc2-c2cnccn2)CC1 | 1.4 nM |  | 
Cc1c(=O)n(Cc2ccccc2)c(=O)n2cc(C(=O)NCc3ccc4[nH]ccc4c3)sc12 |  | 680 nM | 
Cc1c(=O)n(Cc2ccccc2)c(=O)n2cc(C(=O)NCc3ccc4nsnc4c3)sc12 |  | 1460 nM | 
Cc1c(=O)n(Cc2ccccc2)c(=O)n2cc(C(=O)NCc3ccc(F)cc3)sc12 |  | 2230 nM | 
Cc1c(=O)n(Cc2ccccc2)c(=O)n2cc(C(=O)NCc3ccc(Cl)cc3)sc12 |  | 2230 nM | 
Cc1c(=O)n(Cc2ccccc2)c(=O)n2cc(C(=O)N3CC[C@@H](Oc4ccccc4C(F)(F)F)C3)sc12 |  | 100 nM | 
Cc1c(=O)n(Cc2ccccc2)c(=O)n2cc(C(=O)N3CC[C@H](Oc4ccccc4C(F)(F)F)C3)sc12 |  | 150 nM | 
Cc1c(=O)n(Cc2ccccc2)c(=O)n2cc(C(=O)N3CCC(Oc4cccc(Cl)c4)CC3)sc12 |  | 200 nM | 
Cc1cc(C(=O)Nc2ccc(-c3ccccc3S(C)(=O)=O)cc2)n(-c2cccc(C(=N)N)c2)n1 |  |  | IC50 (Coagulation factor X): 0.008 nM

Second part, led by results:

IC50 [1] | IC50 [2] | SMILES | other results
715 nM |  | COc1cc(N)c(Cl)cc1C(=O)OCCN1CCN(c2ccc(Cl)cc2)CC1 | IC50 (Adenosine receptor A2b): 3660 nM
 | 1170 nM | Cc1c(=O)n(Cc2ccccc2)c(=O)n2cc(C(=O)NCc3ccncc3)sc12 | 
 | 1370 nM | Cc1ccc(CNC(=O)c2cn3c(=O)n(Cc4ccccc4)c(=O)c(C)c3s2)cc1 | 
 | 1570 nM | Cc1c(=O)n(Cc2ccccc2)c(=O)n2cc(C(=O)NCc3cccnc3)sc12 | 
 | 1740 nM | COc1cc(CNC(=O)c2cn3c(=O)n(Cc4ccccc4)c(=O)c(C)c3s2)ccn1 | 
 | 1880 nM | Cc1c(=O)n(Cc2ccccc2)c(=O)n2cc(C(=O)NCc3ccccc3)sc12 | 
 | 3490 nM | Cc1c(=O)n(Cc2ccccc2)c(=O)n2cc(C(=O)NCc3ccccn3)sc12 | 
 | 200 nM | Cc1c(=O)n(Cc2ccccc2)c(=O)n2cc(C(=O)N3CCC(Oc4ccccc4F)CC3)sc12 | 
 | 400 nM | Cc1c(=O)n(Cc2ccccc2)c(=O)n2cc(C(=O)N3CCC(c4ccccc4F)CC3)sc12 | 
3 nM |  | COc1cccc(N2CCN(CCOC(=O)c3cc(Cl)c(N)cc3OC)CC2)c1 | IC50 (Adenosine receptor A2b): 50 nM
18 nM |  | COc1ccc(N2CCN(CCOC(=O)c3cc(Cl)c(N)cc3OC)CC2)cc1 | IC50 (Adenosine receptor A2b): 250 nM
17 nM |  | COc1cc(N)c(Cl)cc1C(=O)OCCN1CCN(c2ccccc2F)CC1 | IC50 (Adenosine receptor A2b): 645 nM
